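Where inhibition never reached the appropriate level, the endpoint shown equals the highest concentration tested. Otherwise, values were interpolated linearly from a five-concentration, 48-hour dose response in 96-well plates. GI50 = concentration required for 50% inhibition of growth.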 Active and inactive are the calls of the source. Cut-off read from the data, not from the text of the source: active = GI50 up to about 1.1 µM and inactive = higher.
Key:
Experiment in all cases: growth of human tumour cells (NCI), 48 h
UO-31 = tested on: UO-31
MDA-N = tested on: MDA-N
HT-29 = tested on: HT-29
SN12C = tested on: SN12C
Hs-578T = tested on: Hs-578T
OVCAR-5 = tested on: OVCAR-5
RPMI-8226 = tested on: RPMI-8226
PC-3 = tested on: PC-3
BT-549 = tested on: BT-549
HL-60 = tested on: HL-60
SNB-19 = tested on: SNB-19
SK-MEL-2 = tested on: SK-MEL-2
M14 = tested on: M14
LOX IMVI = tested on: LOX IMVI
SK-MEL-28 = tested on: SK-MEL-28
U-251 = tested on: U-251
NCI-H460 = tested on: NCI-H460
UACC-62 = tested on: UACC-62
CCRF-CEM = tested on: CCRF-CEM
NCI/ADR-RES = tested on: NCI/ADR-RES
DU-145 = tested on: DU-145
SR = tested on: SR
EKVX = tested on: EKVX
CAKI-1 = tested on: CAKI-1
UACC-257 = tested on: UACC-257
OVCAR-4 = tested on: OVCAR-4
SK-MEL-5 = tested on: SK-MEL-5
SF-539 = tested on: SF-539
786-0 = tested on: 786-0
SNB-75 = tested on: SNB-75
RXF 393 = tested on: RXF 393
KM12 = tested on: KM12
SK-OV-3 = tested on: SK-OV-3
COLO 205 = tested on: COLO 205
HOP-62 = tested on: HOP-62
HOP-92 = tested on: HOP-92
HCC 2998 = tested on: HCC 2998
MCF7 = tested on: MCF7
K562 = tested on: K562
SF-295 = tested on: SF-295
HCT-116 = tested on: HCT-116
HCT-15 = tested on: HCT-15
OVCAR-8 = tested on: OVCAR-8
TK-10 = tested on: TK-10
NCI-H23 = tested on: NCI-H23
MDA-MB-231 = tested on: MDA-MB-231
IGROV-1 = tested on: IGROV-1
NCI-H226 = tested on: NCI-H226
OVCAR-3 = tested on: OVCAR-3
A549 = tested on: A549
A498 = tested on: A498
SW-620 = tested on: SW-620
MOLT-4 = tested on: MOLT-4
MDA-MB-435 = tested on: MDA-MB-435
T47D = tested on: T47D
SF-268 = tested on: SF-268
ACHN = tested on: ACHN
NCI-H522 = tested on: NCI-H522
Malme-3M = tested on: Malme-3M

Compound: O=C1c2cc3ccccc3cc2C2(c3ccc(Cl)cc3)NCCN12 (stereo unspecified)
- GI50 (UO-31): 29.9 µM (inactive)
- GI50 (MDA-N): 28.2 µM (inactive)
- GI50 (HT-29): 34.8 µM (inactive)
- GI50 (SN12C): 49.5 µM (inactive)
- GI50 (Hs-578T): 38.3 µM (inactive)
- GI50 (OVCAR-5): 21.5 µM (inactive)
- GI50 (RPMI-8226): 29.4 µM (inactive)
- GI50 (PC-3): 31.1 µM (inactive)
- GI50 (BT-549): 54 µM (inactive)
- GI50 (HL-60): 25.8 µM (inactive)
- GI50 (SNB-19): 24.5 µM (inactive)
- GI50 (SK-MEL-2): 24.6 µM (inactive)
- GI50 (M14): 26.8 µM (inactive)
- GI50 (LOX IMVI): 21.9 µM (inactive)
- GI50 (SK-MEL-28): 39.6 µM (inactive)
- GI50 (U-251): 34.9 µM (inactive)
- GI50 (NCI-H460): 29.6 µM (inactive)
- GI50 (UACC-62): 19.2 µM (inactive)
- GI50 (CCRF-CEM): 33 µM (inactive)
- GI50 (NCI/ADR-RES): 32.8 µM (inactive)
- GI50 (DU-145): 40.6 µM (inactive)
- GI50 (SR): 29 µM (inactive)
- GI50 (EKVX): 26.5 µM (inactive)
- GI50 (CAKI-1): 44.7 µM (inactive)
- GI50 (UACC-257): 31.8 µM (inactive)
- GI50 (OVCAR-4): 52.5 µM (inactive)
- GI50 (SK-MEL-5): 20 µM (inactive)
- GI50 (SF-539): 23 µM (inactive)
- GI50 (786-0): 38.1 µM (inactive)
- GI50 (SNB-75): 27.8 µM (inactive)
- GI50 (RXF 393): 21.8 µM (inactive)
- GI50 (KM12): 20.7 µM (inactive)
- GI50 (SK-OV-3): 29.3 µM (inactive)
- GI50 (COLO 205): 17.6 µM (inactive)
- GI50 (HOP-62): 32.4 µM (inactive)
- GI50 (HOP-92): 34.4 µM (inactive)
- GI50 (HCC 2998): 21.1 µM (inactive)
- GI50 (MCF7): 26.2 µM (inactive)
- GI50 (K562): 61.7 µM (inactive)
- GI50 (SF-295): 25.5 µM (inactive)
- GI50 (HCT-116): 18 µM (inactive)
- GI50 (HCT-15): 27 µM
- GI50 (OVCAR-8): 33.3 µM (inactive)
- GI50 (TK-10): 34.8 µM (inactive)
- GI50 (NCI-H23): 22.1 µM (inactive)
- GI50 (MDA-MB-231): 87.7 µM (inactive)
- GI50 (IGROV-1): 27.4 µM (inactive)
- GI50 (NCI-H226): 34.5 µM (inactive)
- GI50 (OVCAR-3): 23.6 µM (inactive)
- GI50 (A549): 28.4 µM (inactive)
- GI50 (A498): 77.3 µM (inactive)
- GI50 (SW-620): 50.4 µM (inactive)
- GI50 (MOLT-4): 33.2 µM (inactive)
- GI50 (MDA-MB-435): 33 µM (inactive)
- GI50 (T47D): 39.7 µM (inactive)
- GI50 (SF-268): 44.2 µM (inactive)
- GI50 (ACHN): 33 µM (inactive)

Compound: O=C1C(Cl)=C(N(C(=O)c2ccccc2)C(=O)c2ccccc2)C(=O)c2ccccc21
- GI50 (UO-31): 3.39 µM (inactive)
- GI50 (MDA-N): 13.1 µM (inactive)
- GI50 (HT-29): 24.7 µM (inactive)
- GI50 (SN12C): 18.3 µM (inactive)
- GI50 (Hs-578T): 4.8 µM (inactive)
- GI50 (OVCAR-5): 12.2 µM (inactive)
- GI50 (RPMI-8226): 2.05 µM (inactive)
- GI50 (PC-3): 9.18 µM (inactive)
- GI50 (BT-549): 9.04 µM (inactive)
- GI50 (HL-60): 1.08 µM (active)
- GI50 (SNB-19): 26.6 µM (inactive)
- GI50 (SK-MEL-2): 11.4 µM (inactive)
- GI50 (M14): 14.4 µM (inactive)
- GI50 (LOX IMVI): 25.6 µM (inactive)
- GI50 (SK-MEL-28): 14.9 µM (inactive)
- GI50 (U-251): 5.98 µM (inactive)
- GI50 (NCI-H460): 5.12 µM (inactive)
- GI50 (UACC-62): 5.12 µM (inactive)
- GI50 (CCRF-CEM): 2.84 µM (inactive)
- GI50 (NCI/ADR-RES): 29.2 µM (inactive)
- GI50 (DU-145): > 100 µM (inactive)
- GI50 (SR): 15.5 µM (inactive)
- GI50 (EKVX): 5.74 µM (inactive)
- GI50 (CAKI-1): 10.5 µM (inactive)
- GI50 (UACC-257): 14.9 µM (inactive)
- GI50 (SK-MEL-5): 3.6 µM (inactive)
- GI50 (SF-539): 4.3 µM (inactive)
- GI50 (786-0): 14.5 µM (inactive)
- GI50 (SNB-75): 3.68 µM (inactive)
- GI50 (RXF 393): 3.66 µM (inactive)
- GI50 (KM12): 3.38 µM (inactive)
- GI50 (SK-OV-3): 40.6 µM (inactive)
- GI50 (COLO 205): 16.1 µM (inactive)
- GI50 (HOP-62): 49 µM (inactive)
- GI50 (HOP-92): 13.1 µM (inactive)
- GI50 (HCC 2998): 12.1 µM (inactive)
- GI50 (MCF7): 10.1 µM (inactive)
- GI50 (K562): 3.4 µM (inactive)
- GI50 (SF-295): 28.2 µM (inactive)
- GI50 (HCT-116): 4.12 µM (inactive)
- GI50 (HCT-15): 2.94 µM
- GI50 (NCI-H522): 5.7 µM (inactive)
- GI50 (OVCAR-8): 54 µM (inactive)
- GI50 (TK-10): 21.2 µM (inactive)
- GI50 (NCI-H23): 5.42 µM (inactive)
- GI50 (MDA-MB-231): 9.71 µM (inactive)
- GI50 (IGROV-1): 19.4 µM (inactive)
- GI50 (NCI-H226): > 100 µM (inactive)
- GI50 (OVCAR-3): 10.9 µM (inactive)
- GI50 (A549): 16.4 µM (inactive)
- GI50 (A498): > 100 µM (inactive)
- GI50 (SW-620): 5.15 µM (inactive)
- GI50 (MOLT-4): 55 µM (inactive)
- GI50 (MDA-MB-435): 12.6 µM (inactive)
- GI50 (T47D): 4.68 µM (inactive)
- GI50 (SF-268): 2.48 µM (inactive)
- GI50 (ACHN): 3.17 µM (inactive)

Compound: CCOC(=O)P(=O)(O)c1ccc(N(C)Cc2ccccc2)cc1
- GI50 (UO-31): > 100 µM (inactive)
- GI50 (MDA-N): > 100 µM (inactive)
- GI50 (HT-29): > 100 µM (inactive)
- GI50 (SN12C): > 100 µM (inactive)
- GI50 (Hs-578T): > 100 µM (inactive)
- GI50 (OVCAR-5): > 100 µM (inactive)
- GI50 (RPMI-8226): > 100 µM (inactive)
- GI50 (PC-3): > 100 µM (inactive)
- GI50 (BT-549): > 100 µM (inactive)
- GI50 (HL-60): > 100 µM (inactive)
- GI50 (SNB-19): > 100 µM (inactive)
- GI50 (SK-MEL-2): > 100 µM (inactive)
- GI50 (M14): > 100 µM (inactive)
- GI50 (LOX IMVI): > 100 µM (inactive)
- GI50 (SK-MEL-28): > 100 µM (inactive)
- GI50 (U-251): > 100 µM (inactive)
- GI50 (UACC-62): > 100 µM (inactive)
- GI50 (CCRF-CEM): > 100 µM (inactive)
- GI50 (Malme-3M): > 100 µM (inactive)
- GI50 (NCI/ADR-RES): > 100 µM (inactive)
- GI50 (DU-145): > 100 µM (inactive)
- GI50 (SR): > 100 µM (inactive)
- GI50 (EKVX): > 100 µM (inactive)
- GI50 (CAKI-1): > 100 µM (inactive)
- GI50 (UACC-257): > 100 µM (inactive)
- GI50 (OVCAR-4): > 100 µM (inactive)
- GI50 (SK-MEL-5): > 100 µM (inactive)
- GI50 (SF-539): > 100 µM (inactive)
- GI50 (786-0): > 100 µM (inactive)
- GI50 (SNB-75): > 100 µM (inactive)
- GI50 (KM12): > 100 µM (inactive)
- GI50 (SK-OV-3): > 100 µM (inactive)
- GI50 (COLO 205): > 100 µM (inactive)
- GI50 (HOP-62): > 100 µM (inactive)
- GI50 (HOP-92): > 100 µM (inactive)
- GI50 (HCC 2998): > 100 µM (inactive)
- GI50 (MCF7): > 100 µM (inactive)
- GI50 (K562): > 100 µM (inactive)
- GI50 (SF-295): > 100 µM (inactive)
- GI50 (HCT-116): > 100 µM (inactive)
- GI50 (HCT-15): > 100 µM
- GI50 (NCI-H522): > 100 µM (inactive)
- GI50 (OVCAR-8): > 100 µM (inactive)
- GI50 (TK-10): > 100 µM (inactive)
- GI50 (NCI-H23): > 100 µM (inactive)
- GI50 (MDA-MB-231): > 100 µM (inactive)
- GI50 (IGROV-1): > 100 µM (inactive)
- GI50 (NCI-H226): > 100 µM (inactive)
- GI50 (OVCAR-3): > 100 µM (inactive)
- GI50 (A549): > 100 µM (inactive)
- GI50 (A498): > 100 µM (inactive)
- GI50 (SW-620): > 100 µM (inactive)
- GI50 (MOLT-4): > 100 µM (inactive)
- GI50 (MDA-MB-435): > 100 µM (inactive)
- GI50 (T47D): > 100 µM (inactive)
- GI50 (SF-268): > 100 µM (inactive)
- GI50 (ACHN): > 100 µM (inactive)
